Laboratory results as given in PMC11513893, “Discovery of Oral Degraders of the ROS1 Fusion Protein with Potent Activity against Secondary Resistance Mutations” (Journal of Medicinal Chemistry, 2024).
Where two headings read alike, the source gives them in different places.

Key:
[1] = system: ROS1; assay: ROS1 degradation in Ba/F3 cells (WES immunoblotting); type: cell-based; settings: for DC50: concentration needed to reduce ROS1 protein by 50%, Ba/F3 cells; for Dmax (%) (ROS1): maximal degradation of ROS1 in Ba/F3 cells
Method in brief: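 ROS1 and phospho-ROS1 (Tyr2274/2334) in Ba/F3 lysates quantified by capillary immunoassay (WES) with chemiluminescent detection, duplicate experiments. Levels expressed as AUC of the chemiluminescence peak.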

[2] = Metabolic stability in human microsomes; type: in vitro ADME; settings: 250 nM compound, NADPH, 37 °C; for microsomal CLint at 1 h, 0.25 µM / half-life at 1 h, 0.25 µM: human, pooled human microsomes, pH 7.4; for half-life at 1 h, 0.25 µM: read-out: metabolic stability in human microsomes T1/2
Experimental: (§1) Pooled human and rat microsomes were prepared and stored at −80 °C prior to use. A master-mix containing microsome, phosphate buffer, and test compound (9 series) solution was made as follows: (1) 3 μL of microsome (20 mg/mL) was diluted with mixed 30 μL of potassium phosphate buffer (pH 7.4; 10×) and 246 μL of water; (2) 3 μL of 25 μM drug solution was added to the microsome; (3) the master solution was prewarmed at 37 °C for 5 min. NADPH solution A (15 μL) and NADPH solution B (3 μL) from Promega were added to the above-mentioned master solution to initiate the reaction. The final concentration of 9 compounds in the reaction system was 250 nM. An aliquot of 20 μL was pipetted from the reaction solution and stopped by the addition of 180 μL of cold MeCN containing 25 ng of Tamoxifen-(N,N-dimethyl-13C2)-15N as an internal standard at the designated time points (0, 5, 15, 30, 45, and 60 min). The incubation solution was vortexed-mixed (800 rpm/10 min) and centrifuged at 3500 rpm for 10 min to precipitate proteins. The supernatant was collected and used for the LC/MS/MS analysis. The natural log of the remaining percentage of the test compound was plotted against time and the gradient of the line was determined.

[3] = Log P measurement; type: physicochemical
From the text: An important physicochemical property for a PROTAC molecule is its lipophilicity that largely dictates its pharmaceutical performance such as absorption, permeability, and distribution.

[4] = Pharmacokinetics study in Sprague–Dawley rats; type: in vivo; settings: rat
Experimental: Four to 6 weeks old Sprague–Dawley rats [Crl: CD (SD)] (SPF/VAF) were purchased from Charles River (Wilmington MA). Animals were quarantined/acclimated for 2–6 weeks prior to dose initiation. Sprague–Dawley rats were given oral administration of test compounds (20% PG, 5% Solutol, and 75% of 20% HP-β-CD in water) at different dose levels. After treatment with the compounds, whole blood was collected from each study animal by puncture of the tail vein (0.4 mL of whole blood from rats) into tubes containing K2EDTA at each time point. The plasma samples were divided into 2 aliquots (approximately equal in volume) and stored frozen at −75 ± 15 °C within 2 h of the collection until analysis.
The stock solution of the test compound (0.01 M) in DMSO was prepared and stored at −20 ± 5 °C. The desired serial concentrations of working reference analyte solutions were achieved by diluting a stock analyte solution with 50% acetonitrile (0.1% formic acid) in water solution. The bioanalytical LC–MS/MS method was developed for quantitative determination of each test compound in Sprague–Dawley rat plasma with acceptable selectivity, sensitivity, calibration curve, precision, and accuracy. The analytical method is applicable for the determination of test compounds in Sprague–Dawley rat plasma with a lower limit of quantification of 10.0 ng/mL and an upper limit of quantification of 5000 ng/mL. Five microliters of diluted supernatant was injected into the LC–MS/MS system (TSQ Quantis) and a SynergiTM 4 μm Fusion-RP 80 Å (50 × 2 mm) column using gradient elution and a Triple Quad mass spectrometer) for quantitative analysis. The mobile phases used were 0.1% formic acid in deionized water and 0.1% formic acid in acetonitrile. The pharmacokinetic parameters T1/2 (the biological half-life), Cmax (maximal concentration), Tmax (time at which Cmax is observed), and AUC (area under the plasma concentration–time curve) were calculated from the plasma concentration versus time data using WinNonlin (PhoenixTM, version 8.1, Mountain View, CA, USA).

[5] = system: Ba/F3 CD74-ROS1 non mutant; assay: Antiproliferation assay (Alamar Blue, 72 h); type: cell-based, mouse; settings: cell growth inhibition
[6] = system: Ba/F3 ROS1-G2032R; assay: Antiproliferation assay; type: cell-based, mouse; settings: Ba/F3 cells, cell growth inhibition, 72 h
[7] = Metabolic stability in rat microsomes; type: in vitro ADME; settings: 250 nM compound, NADPH, 37 °C; for microsomal CLint at 1 h, 0.25 µM / half-life at 1 h, 0.25 µM: rat, pooled rat microsomes, pH 7.4; for half-life at 1 h, 0.25 µM: read-out: metabolic stability in rat microsomes T1/2
Experimental: as §1

[8] = Pharmacokinetics study in Sprague–Dawley rats; type: in vivo; settings: rat; remark: listed apart in the source
[9] = system: Ba/F3 ROS1 G2032R-F2075V; assay: Antiproliferation assay; type: cell-based; settings: Mus musculus, BaF3; Ba/F3 cells, cell growth inhibition
From the text: (§2) To assess targeted degradation of ROS1 fusion proteins, we first established a mouse pro-B cell line Ba/F3 as a model expressing the CD74-ROS1 oncogene or CD74-ROS1 with clinically observed secondary/tertiary mutations. The Ba/F3 cell line is dependent on interleukin-3 for survival and proliferation. Upon transduction of oncogenic ROS1, Ba/F3 cells become independent of interleukin-3 but dependent on the transduced driver gene.
(§3) Ba/F3 immortalized murine bone marrow–derived pro-B cells were obtained from Creative Biogene (Shirley, NY) and cultured in RPMI supplemented with 10% FBS and IL3 (0.5 ng/mL). Ba/F3 cells expressing ROS1 variants were maintained in RPMI supplemented with 10% FBS and puromycin (0.7 mg/mL). […] Each compound was dissolved in DMSO and serially diluted in RPMI for cell culture experiments.
(§4) To assess the 72 h effect of drug treatment on cell proliferation, 2000 to 3000 cells were plated in replicates of three in 96-well plates. The plates were placed in an incubator at 37 °C, 5% CO2 for 72 h. Following drug treatments, the cells were incubated with the Alamar Blue Assay reagent (BioRad), 5 μL each well for 4 h at 37 °C and 5% CO2. Luminescence was measured on a multiplate reader and analyzed. […] IC50 values were determined using a nonlinear regression model with a sigmoidal dose response in GraphPad. The data were collected based on triplicate experiments, and presented as mean ± SD.
(§5) The resulting virus was used to infect Ba/F3 cells. After retroviral infection, Ba/F3 cells were selected by incubation with puromycin (0.7 mg/mL) for 2 weeks. For Ba/F3 cells infected by the CD74–ROS1 variants, IL3 was withdrawn from the culture medium at least 2 weeks before the experiments.

[10] = system: Ba/F3 ROS1 D2033N; assay: Antiproliferation assay; type: cell-based; settings: Mus musculus, BaF3; Ba/F3 cells, cell growth inhibition
From the text: as §2, §3, §4, §5

[11] = system: Ba/F3 ROS1 L2026M; assay: Antiproliferation assay; type: cell-based; settings: Mus musculus, BaF3; Ba/F3 cells, cell growth inhibition
From the text: as §2, §3, §4, §5

[12] = system: Ba/F3 ROS1 L2086F; assay: Antiproliferation assay; type: cell-based; settings: Mus musculus, BaF3; Ba/F3 cells, cell growth inhibition
From the text: as §2, with “gene. The Ba/F3 models have been effectively employed in the discovery and preclinical development of next generation ROS1 inhibitors.[11],[14],[15] We have tested ROS1 inhibitors against these Ba/F3 cells to validate their sensitivity and resistance to ROS1 inhibition.” for “gene.”
Ba/F3 immortalized murine bone marrow–derived pro-B cells were obtained from Creative Biogene (Shirley, NY) and cultured in RPMI supplemented with 10% FBS and IL3 (0.5 ng/mL). Ba/F3 cells expressing ROS1 variants were maintained in RPMI supplemented with 10% FBS and puromycin (0.7 mg/mL). Crizotinib, ceritinib, brigatinib, repotrectinib, and lorlatinib were purchased from MedChem Express. Each compound was dissolved in DMSO and serially diluted in RPMI for cell culture experiments.
as §4
as §5, with “cDNA encoding CD74-ROS1 or mutant CD74–ROS1 was cloned into retroviral expression vectors (pLenti), and viruses were generated in HEK293T cells by transfecting with packaging plasmids. The” for “The”

[13] = Sprague-Dawley [Crl: CD (SD)], plasma, 10 mg/kg po
[14] = Sprague-Dawley [Crl: CD (SD)], plasma, 10 mg/kg po, read-out: AUC (po)
[15] = Sprague-Dawley [Crl: CD (SD)], plasma, 10 mg/kg po, read-out: Tmax
[16] = Mus musculus, BaF3, 72 h, Ba/F3 cells

Row | Structure (SMILES) | DC50 [1] [nM] | Dmax (%) (ROS1) [1] | microsomal CLint at 1 h, 0.25 µM [2] [µL/min/mg] | half-life at 1 h, 0.25 µM [2] [h] | logP [3] | Cmax at 24 h [4, 13] [ng/mL] | half-life [4, 13] [h] | AUC [4, 14] [ng·h/mL] | Tmax [4, 15] [h] | IC50 [5, 16] [nM] | IC50 ([6]; Mus musculus, BaF3) [nM] | microsomal CLint at 1 h, 0.25 µM [7] [µL/min/mg] | half-life at 1 h, 0.25 µM [7] [h] | other results
1 | COc1cc(N2CCN(CC3CN(c4ccc5c(c4)C(=O)N(C4CCC(=O)NC4=O)C5=O)C3)CC2)ccc1Nc1ncc(Cl)c(Nc2ccccc2P(C)(C)=O)n1 (stereo not drawn) [9b, 5-(3-((4-(4-((5-Chloro-4-((2-(dimethylphosphoryl)phenyl)amino)pyrimidin-2-yl)amino)-3-methoxyphenyl)piperazin-1-yl)methyl)azetidin-1-yl)-2-(2,6-dioxopiperidin-3-yl)isoindoline-1,3-dione] | 10 | 96 |  |  |  |  |  |  |  |  |  |  |  | metabolic stability in human microsomes Clint [2]: 119.5 µL/min/mg; metabolic stability in human microsomes T1/2 [2]: 0.483 h; log P [3]: 2.84; AUC (po) ([4]; 10 mg/kg po): 41,622 h·ng/mL; Cmax ([4]; 10 mg/kg po): 4582 ng/mL; T1/2 ([4]; 10 mg/kg po): 4.11 h; Tmax ([4]; 10 mg/kg po): 3 h; % F ([4]; 10 mg/kg po vs 2 mg/kg iv): 16.5%; IC50 ([5]; Ba/F3 cells): 13 ± 2 nM; IC50 [6]: 153 ± 20 nM; metabolic stability in rat microsomes Clint [7]: 13.8 µL/min/mg; metabolic stability in rat microsomes T1/2 [7]: 1.675 h; AUC (iv) ([8]; 2 mg/kg iv): 50,451 h·ng/mL
2 | COc1cc(N2CCN(CC3CCN(c4ccc5c(c4)C(=O)N(C4CCC(=O)NC4=O)C5=O)CC3)CC2)ccc1Nc1ncc(Cl)c(Nc2ccccc2P(C)(C)=O)n1 (stereo not drawn) [9c, 5-(4-((4-(4-((5-Chloro-4-((2-(dimethylphosphoryl)phenyl)amino)pyrimidin-2-yl)amino)-3-methoxyphenyl)piperazin-1-yl)methyl)piperidin-1-yl)-2-(2,6-dioxopiperidin-3-yl)isoindoline-1,3-dione] | 22 | 95 | 87 | 0.663 | 2.35 | 2340 | 6.81 | 31700 | 3 | 19 ± 8 | 236 ± 28 | 77 | 0.3 | AUC ([4]; Sprague-Dawley [Crl: CD (SD)], plasma, 2 mg/kg iv, read-out: AUC (iv)): 29400 ng·h/mL; bioavailability ([4]; Sprague-Dawley [Crl: CD (SD)], plasma, 10 mg/kg po vs 2 mg/kg iv): 21.6%
3 | COc1cc(N2CCC(N3CCN(CC4CN(c5ccc6c(c5)C(=O)N(C5CCC(=O)NC5=O)C6=O)C4)CC3)CC2)ccc1Nc1ncc(Cl)c(Nc2ccccc2P(C)(C)=O)n1 (stereo not drawn) [9e, 5-(3-((4-(1-(4-((5-Chloro-4-((2-(dimethylphosphoryl)phenyl)amino)pyrimidin-2-yl)amino)-3-methoxyphenyl)piperidin-4-yl)piperazin-1-yl)methyl)azetidin-1-yl)-2-(2,6-dioxopiperidin-3-yl)isoindoline-1,3-dione] | 5.1 | 97 | 57 | 1.01 | 2.5 | 3240 | 7.7 | 25400 | 2 | 3.8 ± 0.2 | 80 ± 27 | 12.8 | 1.8 | bioavailability ([4]; Sprague-Dawley [Crl: CD (SD)], plasma, 10 mg/kg po vs 1 mg/kg iv): 12.2%; AUC (iv) ([8]; 1 mg/kg iv): 20,850 h·ng/mL
4 | CN1CCN(c2ccc(C(=O)Nc3n[nH]c4ccc(Cc5cc(F)cc(F)c5)cc34)c(NC3CCOCC3)c2)CC1 [entrectinib] |  |  |  |  |  |  |  |  |  |  | 980 ± 77 |  |  | IC50 ([5]; Mus musculus, BaF3, Ba/F3 cells): 2.4 ± 0.4 nM; IC50 [9]: > 2000 nM; IC50 [10]: 132 ± 15 nM; IC50 [11]: 56 ± 7 nM; IC50 [12]: 506 ± 97 nM
